Publication doi:10.1101/2023.04.01.534865v1 (biorxiv, 2023)

Molecular target: T1, GST-OSBP(377-807) (Homo sapiens, UniProt P22059)
T1 sequence (P22059 377-807): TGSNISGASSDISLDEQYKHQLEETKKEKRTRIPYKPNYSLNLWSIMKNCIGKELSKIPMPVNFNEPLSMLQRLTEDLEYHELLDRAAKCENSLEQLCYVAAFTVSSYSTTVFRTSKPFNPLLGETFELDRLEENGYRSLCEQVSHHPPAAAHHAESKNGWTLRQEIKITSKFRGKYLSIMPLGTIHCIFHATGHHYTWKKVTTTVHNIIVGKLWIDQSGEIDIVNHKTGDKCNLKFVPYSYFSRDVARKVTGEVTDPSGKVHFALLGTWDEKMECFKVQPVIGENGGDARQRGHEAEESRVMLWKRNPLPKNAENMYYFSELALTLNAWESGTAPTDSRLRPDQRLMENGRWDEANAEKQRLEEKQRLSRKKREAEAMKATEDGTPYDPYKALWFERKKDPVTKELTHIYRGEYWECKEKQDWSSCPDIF
Test: competitive fluorescence polarization
Type: binding

| Compound | IC50 |
| --- | --- |
| C[C@H](CCC(=O)NCCCOCCCCOCCCNC(=O)OC(C)(C)C)[C@H]1CC[C@H]2[C@@H]3CC=C4C[C@@H](O)CC[C@]4(C)[C@H]3CC[C@]12C [C3_Boc, oxybipin-2] | 74 nM |
| C[C@H](CCC(=O)NCCCOCCCCOCCCNC(=O)CC12CC3CC(CC(C3)C1)C2)[C@H]1CC[C@H]2[C@@H]3CC=C4C[C@@H](O)CC[C@]4(C)[C@H]3CC[C@]12C [C3_HyT, oxybipin-1] | 142 nM |
